Experiments:
[1] = biological target: T1, PDK1 (Homo sapiens, UniProt O15530); experiment: Test for the inhibition of PDK1 (flashplate, 33P-ATP); assay type: biochemical; conditions: His6-PDK1 3.4 nM, 4 μM ATP, 30° C., 60 min
T1 construct: His6 (N)
Procedure: The experimental batches are carried out in a flashplate system with 384 wells/microtitration plate.
In each case, the PDK1 sample His6-PDK1(SEQ ID NO: 2)(1-50)(3.4 nM), the PDK1 substrate biotin-bA-bA-[…] (SEQ ID NO: 3) (400 nM), 4 μM ATP (with 0.2 μCi of ^33P-ATP/well) and the test substance in 50 μl of conventional experimental solution per well are incubated at 30° C. for 60 min. The test substances are employed in corresponding concentrations (if desired in a dilution series). The control is carried out without test substance. The reaction is stopped using standard methods and washed. The activity of the kinase is measured via the incorporated radioactivity in top count. In order to determine the non-specific kinase reaction (blank value), the experimental batches are carried out in the presence of 100 nM staurosporin.
The radioactivity (decompositions per minute) of the blank value (no use of test substance in the presence of staurosporin) is subtracted from all other radioactivity values. The controls (kinase activity without test substance) are set equal to 100 percent and all other radioactivity values (after subtracting the blank value) are expressed set in relation thereto (for example in % of the control).
IC50 values (50% inhibition) are determined with the aid of statistics programmes, such as, for example, RS1.

[2] = test system: PDK1 kinase activity in PC3 cells (phospho-T308-PKB); experiment: Cellular testing of PDK1 kinase inhibitors in PC3 cells (Luminex, phospho-T308-PKB); assay type: cell-based; conditions: Homo sapiens, PC-3, 0.5 h, 30 min with test substance, serum-free, phospho-T308-PKB by Luminex, read-out: IC50 [PC3 P-PKB Thr308]
Procedure: Method for the Cellular Testing of PDK1 Kinase Inhibitors in PC3 Cells.
The cellular assay for the determination of the PDK1 kinase activity is carried out as a Luminex assay in the 96-well format. PC3 cells are sown at 20,000 cells per well in 100 μl of medium (45% of […]/45% of Ham's F12/10% of FCS) and incubated on the following day for 30 min with a serial dilution of the test substance (7 concentrations) under serum-free conditions. The cells are subsequently lysed using 90 μl of lysis buffer (20 mM tris/HCl pH 8.0, 150 mM NaCl, 1% of NP40, 10% of glycerol, 1% of phosphatase inhibitor I, 1% of phosphatase inhibitor II, 0.1% of protease inhibitor cocktail III, 0.01% of benzonase) per well, and the lysates are separated off from insoluble cell constituents by means of centrifugation through a 96-well filter plate (0.65 μm). The lysates are incubated overnight at 4° C. with shaking with Luminex beads to which an anti-total PKB antibody is coupled. The detection is carried out on the following day by addition of a phospho-T308-PKB antibody and a species-specific […] secondary antibody. The detection of phospho-T308-PKB is carried out by measurement in a Luminex100 instrument by determination of 100 events per cavity in a measurement time of 60 sec. As pharmacological blank, the signals obtained from cells which have been treated with 10 μM staurosporin are subtracted from all other batches. The control value used for maximum phosphorylation of PKB on T308 are the signals from cells which have only been treated with the solvent (0.3% of DMSO). The values of the batches treated with test substance are calculated therefrom as percentage of control, and IC50 values are determined by means of RS1.

T1 sequence (O15530 51-556): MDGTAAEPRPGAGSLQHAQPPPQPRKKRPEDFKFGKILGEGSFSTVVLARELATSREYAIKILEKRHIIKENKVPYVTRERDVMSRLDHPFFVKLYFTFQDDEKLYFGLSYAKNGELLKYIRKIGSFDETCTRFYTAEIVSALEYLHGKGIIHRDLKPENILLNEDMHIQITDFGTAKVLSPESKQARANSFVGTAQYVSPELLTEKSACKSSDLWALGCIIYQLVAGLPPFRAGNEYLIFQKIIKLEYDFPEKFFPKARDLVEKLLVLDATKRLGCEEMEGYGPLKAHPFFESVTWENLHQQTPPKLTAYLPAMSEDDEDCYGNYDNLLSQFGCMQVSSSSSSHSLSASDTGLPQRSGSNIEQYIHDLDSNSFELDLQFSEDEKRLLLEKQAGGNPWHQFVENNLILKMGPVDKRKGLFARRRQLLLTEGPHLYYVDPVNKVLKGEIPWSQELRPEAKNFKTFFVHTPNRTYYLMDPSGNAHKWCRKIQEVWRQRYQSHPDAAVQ

CCc1cc(-c2c[nH]c3ncc(-c4cnn(C5CCNCC5)c4)cc23)nc(NC)n1 [Compound A64, {4-Ethyl-6-[5-(1-piperidin-4-yl-1H-pyrazol-4-yl)-1H-pyrrolo[2,3-b]pyridin-3-yl]pyrimidin-2-yl}methylamine] showed an IC50 [1] of 10 to 1000 nM.

In the case of CCc1cc(-c2c[nH]c3ncc(-c4cnn(CC(=O)N5CCOCC5)c4)cc23)nc(N)n1 [Compound A32, 2-{4-[3-(2-Amino-6-ethylpyrimidin-4-yl)-1H-pyrrolo[2,3-b]pyridin-5-yl]pyrazol-1-yl}-1-morpholin-4-ylethanone], the IC50 [1] is reported as 10 to 1000 nM and the IC50 [2] is reported as 10000 to 20000 nM.

Work on CC(C)n1cc(-c2cnc3[nH]cc(-c4cc(C5(O)CCCCC5)nc(N)n4)c3c2)cn1 [Compound A53, 1-{2-Amino-6-[5-(1-isopropyl-1H-pyrazol-4-yl)-1H-pyrrolo[2,3-b]pyridin-3-yl]-pyrimidin-4-yl}cyclohexanol] yielded an IC50 [1] of 10 to 1000 nM and an IC50 [2] of 10000 to 20000 nM.

Compound CCc1cc(-c2c[nH]c3ncc(-c4cccc(C(=O)NCCN(C)C)c4)cc23)nc(N)n1 [Compound A11, 3-[3-(2-amino-6-ethylpyrimidin-4-yl)-1H-pyrrolo-[2,3-b]pyridin-5-yl]-N-(2-dimethylaminoethyl)benzamide] has an IC50 [1] of 10 to 1000 nM and an IC50 [2] of 10000 to 20000 nM.

CCc1cc(-c2c[nH]c3ncc(-c4cnn(Cc5cccc(F)c5)c4)cc23)nc(N)n1 [Compound A98, 4-Ethyl-6-{5-[1-(3-fluorobenzyl)-1H-pyrazol-4-yl]-1H-pyrrolo[2,3-b]pyridin-3-yl}pyrimidin-2-ylamine] gave an IC50 [1] of 10 to 1000 nM and an IC50 [2] of 1000 to 10000 nM.

CCCCc1cc(-c2c[nH]c3ncc(-c4cnn(C5CCN(C(C)=O)CC5)c4)cc23)nc(N)n1 [Compound A86, 1-(4-{4-[3-(2-Amino-6-butylpyrimidin-4-yl)-1H-pyrrolo[2,3-b]pyridin-5-yl]-pyrazol-1-yl}piperidin-1-yl)ethanone] gave an IC50 [1] of 10 to 1000 nM and an IC50 [2] of 1000 to 10000 nM.

CCc1cc(-c2c[nH]c3ncc(-c4cnn(C(C)C)c4)cc23)nc(NC)n1 [Compound A60, {4-Ethyl-6-[5-(1-isopropyl-1H-pyrazol-4-yl)-1H-pyrrolo[2,3-b]pyridin-3-yl]-pyrimidin-2-yl}methylamine] was tested, and the IC50 [1] was 10 to 1000 nM.

CN(C)CCn1cc(-c2cnc3[nH]cc(-c4cc(CCCCO)nc(N)n4)c3c2)cn1 [Compound A39, 4-(2-Amino-6-{5-[1-(2-dimethylaminoethyl)-1H-pyrazol-4-yl]-1H-pyrrolo-[2,3-b]pyridin-3-yl}pyrimidin-4-yl)butan-1-ol] showed an IC50 [1] of 10 to 1000 nM and an IC50 [2] of 10000 to 20000 nM.

For CCCCc1cc(-c2c[nH]c3ncc(-c4cnn(CC(=O)N5CCCCC5)c4)cc23)nc(N)n1 [Compound A58, 2-{4-[3-(2-amino-6-butylpyrimidin-4-yl)-1H-pyrrolo[2,3-b]pyridin-5-yl]-pyrazol-1-yl}-1-piperidin-1-ylethanone], the IC50 [1] was 10 to 1000 nM and the IC50 [2] was 1000 to 10000 nM.

Compound CCCCc1cc(-c2c[nH]c3ncc(-c4cnn(C5CCN(C)CC5)c4)cc23)nc(N)n1 [Compound A89, 4-Butyl-6-{5-[1-(1-methylpiperidin-4-yl)-1H-pyrazol-4-yl]-1H-pyrrolo[2,3-b]-pyridin-3-yl}pyrimidin-2-ylamine] has an IC50 [1] of 10 to 1000 nM and an IC50 [2] of 1000 to 10000 nM.

With CCc1cc(-c2c[nH]c3ncc(-c4cnn(CC(=O)N5CCCC5)c4)cc23)nc(NC)n1 [Compound A66, 2-{4-[3-(6-Ethyl-2-methylaminopyrimidin-4-yl)-1H-pyrrolo[2,3-b]pyridin-5-yl]-pyrazol-1-yl}-1-pyrrolidin-1-ylethanone] the IC50 [1] was 10 to 1000 nM.

CCc1cc(-c2c[nH]c3ncc(-c4cnn(CC(=O)N5CCCc6ccccc65)c4)cc23)nc(NC)n1 [Compound A73, 1-(3,4-Dihydro-2H-quinolin-1-yl)-2-{4-[3-(6-ethyl-2-methylaminopyrimidin-4-yl)-1H-pyrrolo[2,3-b]pyridin-5-yl]pyrazol-1-yl}ethanone] was tested, and the IC50 [1] was 10 to 1000 nM.

CCCCc1cc(-c2c[nH]c3ncc(-c4cnn(C5CCN(C)CC5)c4)cc23)nc(NC)n1 [Compound A71, (4-Butyl-6-{5-[1-(1-methylpiperidin-4-yl)-1H-pyrazol-4-yl]-1H-pyrrolo[2,3-b]-pyridin-3-yl}pyrimidin-2-yl)methylamine] was tested, and the IC50 [1] was 10 to 1000 nM.

CCc1cc(-c2c[nH]c3ncc(-c4cn[nH]c4)cc23)nc(NC)n1 [Compound A62, {4-Ethyl-6-[5-(1H-pyrazol-4-yl)-1H-pyrrolo[2,3-b]pyridin-3-yl]pyrimidin-2-yl}-methylamine] showed an IC50 [1] of 10 to 1000 nM.

CCc1cc(-c2c[nH]c3ncc(-c4cnn(CCO)c4)cc23)nc(NC)n1 [Compound A68, 2-{4-[3-(6-Ethyl-2-methylaminopyrimidin-4-yl)-1H-pyrrolo[2,3-b]pyridin-5-yl]-pyrazol-1-yl}ethanol] was tested, and the IC50 [1] was 10 to 1000 nM.

In the case of Nc1nc(CCC(=O)N2CCOCC2)cc(-c2c[nH]c3ncccc23)n1 [Compound A82, 3-[2-Amino-6-(1H-pyrrolo[2,3-b]pyridin-3-yl)pyrimidin-4-yl]-1-morpholin-4-ylpropan-1-one], the IC50 [1] is reported as 1000 to 10000 nM.

COc1nc(Cc2ccccc2)cc(-c2c[nH]c3ncc(-c4cnn(C(C)C)c4)cc23)n1 [Compound A74, 3-(6-Benzyl-2-methoxypyrimidin-4-yl)-5-(1-isopropyl-1H-pyrazol-4-yl)-1H-pyrrolo[2,3-b]pyridine] showed an IC50 [1] of 1000 to 10000 nM.

With CCc1cc(-c2c[nH]c3ncc(-c4cnn(C(C)C)c4)cc23)nc(OC)n1 [Compound A75, 3-(6-Ethyl-2-methoxypyrimidin-4-yl)-5-(1-isopropyl-1H-pyrazol-4-yl)-1H-pyrrolo[2,3-b]pyridine] the IC50 [1] was 10 to 1000 nM.

CCCCc1cc(-c2c[nH]c3ncc(-c4cnn(CCO)c4)cc23)nc(NC)n1 [Compound A67, 2-{4-[3-(6-Butyl-2-methylaminopyrimidin-4-yl)-1H-pyrrolo[2,3-b]pyridin-5-yl]-pyrazol-1-yl}ethanol] gave an IC50 [1] of 10 to 1000 nM.

Nc1nc(CCCCO)cc(-c2c[nH]c3ncccc23)n1 [Compound A45, 4-[2-Amino-6-(1H-pyrrolo[2,3-b]pyridin-3-yl)pyrimidin-4-yl]butan-1-ol] showed an IC50 [1] of 1000 to 10000 nM.

With CCCCc1cc(-c2c[nH]c3ncc(-c4cnn(C5CCNCC5)c4)cc23)nc(NC)n1 [Compound A70, {4-Butyl-6-[5-(1-piperidin-4-yl-1H-pyrazol-4-yl)-1H-pyrrolo[2,3-b]pyridin-3-yl]pyrimidin-2-yl}methylamine] the IC50 [1] was 10 to 1000 nM.

CCc1cc(-c2c[nH]c3ncc(-c4cnn(CC(=O)N5CCCCC5)c4)cc23)nc(NC)n1 [Compound A65, 2-{4-[3-(6-Ethyl-2-methylaminopyrimidin-4-yl)-1H-pyrrolo[2,3-b]pyridin-5-yl]-pyrazol-1-yl}-1-piperidin-1-ylethanone] showed an IC50 [1] of 10 to 1000 nM.

Work on CN(C)CCNC(=O)CCc1cc(-c2c[nH]c3ncccc23)nc(N)n1 [Compound A83, 3-[2-Amino-6-(1H-pyrrolo[2,3-b]pyridin-3-yl)pyrimidin-4-yl]-N-(2-dimethylaminoethyl)propionamide] yielded an IC50 [1] of 1000 to 10000 nM.

CCc1cc(-c2c[nH]c3ncc(-c4cnn(CCN(C)C)c4)cc23)nc(NC)n1 [Compound A61, (4-{5-[1-(2-Dimethylaminoethyl)-1H-pyrazol-4-yl]-1H-pyrrolo[2,3-b]pyridin-3-yl}-6-ethylpyrimidin-2-yl)methylamine] gave an IC50 [1] of 10 to 1000 nM.

With CC(C)Cn1cc(-c2cnc3[nH]cc(-c4cc(CCCN)nc(N)n4)c3c2)cn1 [Compound A84, 4-(3-Aminopropyl)-6-[5-(1-isobutyl-1H-pyrazol-4-yl)-1H-pyrrolo[2,3-b]pyridin-3-yl]pyrimidin-2-ylamine] the IC50 [1] was 10 to 1000 nM.

With CCc1cc(-c2c[nH]c3ncc(-c4cnn(C(C)C(=O)Nc5ccc6[nH]ccc6c5)c4)cc23)nc(NC)n1 (centres unmarked) [Compound A72, 2-{4-[3-(6-Ethyl-2-methylaminopyrimidin-4-yl)-1H-pyrrolo[2,3-b]pyridin-5-yl]-pyrazol-1-yl}-N-(1H-indol-5-yl)propionamide] the IC50 [1] was 10 to 1000 nM.

CCc1cc(-c2c[nH]c3ncc(-c4cnn(C)c4)cc23)nc(NC)n1 [Compound A63, {4-Ethyl-6-[5-(1-methyl-1H-pyrazol-4-yl)-1H-pyrrolo[2,3-b]pyridin-3-yl]-pyrimidin-2-yl}methylamine] was tested, and the IC50 [1] was 10 to 1000 nM.

Source: patent publication US8420820B2, “Pyrrolopyridinylpyrimidin-2-ylamine derivatives” (Merck Patent GmbH, priority 2008, dated 2013)
